Experimental data as given in the supplement of paper PMC10307832.

Columns and labels:
Assay in all cases: relative viability (nuclei count vs DMSO), 5 days (fraction); higher = more cells survive
[1] = compound: CCN1C(=O)C2=CC(=C(N=C2N(C1=O)C3CC3)N)C(=O)N + CC(=O)Nc1cccc(-n2c(=O)n(C3CC3)c(=O)c3c(Nc4ccc(I)cc4F)n(C)c(=O)c(C)c32)c1 [Trametinib] (partner 0.02 µM)
How it was run: (§1)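 A single step with final 0.05% Triton X-100, 1% formaldehyde and 1 ug/ml Hoechst fixed the cells and stained nuclei 5 days after treatment. Lung cancer cell lines in 1536-well plates had been treated by pin tool the day after seeding with one drug alone or a fixed anchor-drug dose plus five library-drug doses (not always all listed) in √10 steps, and nuclei were counted on 4× images. Relative viability is the ratio of nuclei in treated wells to nuclei in vehicle wells, taken as the median of duplicate plates.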

[2] = compound: CCN1C(=O)C2=CC(=C(N=C2N(C1=O)C3CC3)N)C(=O)N + CS(=O)(=O)N1CCN(Cc2cc3nc(-c4cccc5[nH]ncc45)nc(N4CCOCC4)c3s2)CC1 [Pictilisib] (partner 1 µM)
How it was run: as §1

[3] = compound: CCN1C(=O)C2=CC(=C(N=C2N(C1=O)C3CC3)N)C(=O)N + C[C@@H](Oc1cc(-c2cnn(C3CCNCC3)c2)cnc1N)c1c(Cl)ccc(F)c1Cl [Crizotinib] (partner 1 µM)
How it was run: as §1

[4] = compound: CCN1C(=O)C2=CC(=C(N=C2N(C1=O)C3CC3)N)C(=O)N + NC(=O)Nc1cc(-c2cccc(F)c2)sc1C(=O)N[C@H]1CCCNC1 [AZD7762] (partner 0.2 µM)
How it was run: as §1

[5] = compound: CCN1C(=O)C2=CC(=C(N=C2N(C1=O)C3CC3)N)C(=O)N + O=C(c1cc(Cc2n[nH]c(=O)c3ccccc23)ccc1F)N1CCN(C(=O)C2CC2)CC1 [Olaparib] (partner 8 µM)
How it was run: as §1

Row | Cell Line | relative viability ([1]; first compound 0.253 µM) | relative viability ([1]; first compound 2.53 µM) | relative viability ([1]; first compound 8 µM) | relative viability ([2]; first compound 0.253 µM) | relative viability ([2]; first compound 0.8 µM) | relative viability ([2]; first compound 2.53 µM) | relative viability ([2]; first compound 8 µM) | relative viability ([3]; first compound 0.253 µM) | relative viability ([3]; first compound 0.8 µM) | relative viability ([3]; first compound 2.53 µM) | relative viability ([3]; first compound 8 µM) | relative viability ([4]; first compound 0.253 µM) | relative viability ([4]; first compound 2.53 µM) | relative viability ([4]; first compound 8 µM) | relative viability ([5]; first compound 0.253 µM) | relative viability ([5]; first compound 2.53 µM) | relative viability ([5]; first compound 8 µM) | relative viability ([1]; first compound 0.8 µM) | relative viability ([4]; first compound 0.8 µM) | relative viability ([5]; first compound 0.8 µM)
1 | EMC-BAC-2 | 0.871 | 0.766 | 0.9 | 0.642 | 0.536 | 0.456 | 0.584 | 0.841 | 0.734 | 0.713 | 0.855 | 1.18 | 1.04 | 1.14 | 0.546 | 0.498 | 0.487 |  |  | 
2 | NCI-H727 | 0.39 | 0.422 | 0.386 | 0.441 | 0.375 | 0.428 | 0.508 | 0.899 | 0.797 | 0.843 | 0.882 | 0.61 | 0.726 | 0.577 | 0.81 | 0.539 | 0.774 | 0.436 | 0.534 | 0.705
3 | LU99A | 0.504 | 0.56 | 0.549 | 0.305 | 0.332 | 0.303 | 0.363 | 0.587 | 0.57 | 0.476 | 0.591 | 0.356 | 0.304 | 0.348 | 0.256 | 0.256 | 0.275 | 0.545 | 0.377 | 0.285
4 | LK-2 | 0.756 | 0.727 | 0.795 | 0.547 | 0.507 | 0.525 | 0.556 | 0.412 | 0.226 | 0.204 | 0.153 | 0.516 | 0.359 | 0.608 | 0.641 | 0.575 | 0.596 | 0.715 | 0.348 | 0.706
5 | NCI-H3122 | 0.224 | 0.266 | 0.224 | 0.51 | 0.695 | 0.554 | 0.658 | 0.257 | 0.273 | 0.27 | 0.277 | 0.922 | 1.02 | 0.983 | 0.636 | 0.624 | 0.581 | 0.21 | 0.967 | 0.659
6 | NCI-H2347 | 0.183 | 0.307 | 0.307 | 0.475 | 0.711 | 0.566 | 0.782 | 0.862 | 0.841 | 0.712 | 0.719 | 0.769 | 0.695 | 0.817 | 0.576 | 0.55 | 0.518 | 0.299 | 0.785 | 0.612
7 | NCI-H1563 |  |  |  | 0.648 | 0.618 | 0.728 | 0.616 | 0.907 | 0.881 | 0.991 | 0.811 |  |  |  |  |  |  |  |  | 
8 | HCC-827 | 0.525 | 0.537 | 0.544 | 0.954 | 1.08 | 1.16 | 1.03 | 0.933 | 0.98 | 0.866 | 0.885 | 0.165 | 0.25 | 0.207 | 0.681 | 0.584 | 0.699 | 0.538 | 0.193 | 0.679
9 | NCI-H1666 | 0.906 | 0.83 | 0.815 | 0.42 | 0.377 | 0.391 | 0.359 | 1.16 | 0.998 | 0.883 | 1 | 0.888 | 0.909 | 0.84 | 0.719 | 0.856 | 0.737 | 0.778 | 0.824 | 0.724
10 | NCI-H358 | 0.121 | 0.144 | 0.138 | 0.4 | 0.343 | 0.284 | 0.424 | 0.642 | 0.551 | 0.525 | 0.774 | 0.535 | 0.552 | 0.564 | 0.584 | 0.578 | 0.581 | 0.134 | 0.536 | 0.61
11 | 201T | 0.744 | 0.686 | 0.724 | 0.688 | 0.621 | 0.722 | 0.635 | 1.08 | 0.97 | 0.98 | 1.03 | 0.609 | 0.64 | 0.615 | 0.87 | 0.832 | 0.901 | 0.702 | 0.677 | 0.869
12 | RERF-LC-KJ | 0.697 | 0.751 | 0.847 | 0.488 | 0.455 | 0.508 | 0.55 | 0.783 | 0.842 | 0.796 | 0.858 | 1.02 | 1.6 | 1 | 0.887 | 0.883 | 0.897 | 0.793 | 0.826 | 0.89
13 | NCI-H2405 | 0.689 | 0.661 | 0.602 | 0.456 | 0.464 | 0.424 | 0.479 | 0.866 | 0.844 | 0.817 | 0.873 | 0.868 | 0.928 | 0.725 | 0.9 | 0.904 | 0.91 |  |  | 
14 | LXF-289 | 0.636 | 0.661 | 0.665 | 0.831 | 0.85 | 0.819 | 0.775 | 0.834 | 0.852 | 0.759 | 0.84 | 1.12 | 1.08 | 1.07 | 0.957 | 1.01 | 1.18 | 0.658 | 1.17 | 1.07
15 | EKVX | 0.378 | 0.372 | 0.371 | 0.439 | 0.411 | 0.388 | 0.438 | 1.07 | 1.14 | 0.837 | 1.05 | 0.824 | 0.749 | 0.698 | 0.849 | 0.792 | 0.682 | 0.359 | 0.701 | 0.972
16 | A-427 | 0.827 | 0.7 | 0.767 | 0.724 | 0.578 | 0.645 | 0.727 | 0.986 | 1.08 | 0.774 | 1.06 | 0.73 | 0.731 | 0.789 | 0.763 | 0.703 | 0.744 | 0.7 | 0.791 | 0.792
17 | IA-LM |  |  |  | 0.358 | 0.356 | 0.343 | 0.339 | 0.816 | 0.662 | 0.797 | 1.14 |  |  |  | 0.92 | 0.739 | 0.845 |  |  | 0.818
